Experimental data published in the kinase profiling compilation of Christmann-Franck et al. (2016).

Columns and labels:
Assay in all cases: radiometric filter-binding kinase assay
[1] = target: AURKC (human) (UniProt Q9UQB9); details: ATP 5 µM
[2] = target: CAMKK1 (human) (UniProt Q8N5S9); details: ATP 20 µM
[3] = target: CAMKK2 (human) (UniProt Q96RR4); details: ATP 20 µM
[4] = target: CHEK1 (human) (UniProt O14757); details: ATP 20 µM
[5] = target: CSNK2A1 or CSNK2A2 (human) (UniProt P19784+P68400); details: ATP 5 µM
[6] = target: DYRK2 (human) (UniProt Q92630); details: ATP 50 µM
Chain of DYRK2 (human) (Q92630 whole entry, looked up): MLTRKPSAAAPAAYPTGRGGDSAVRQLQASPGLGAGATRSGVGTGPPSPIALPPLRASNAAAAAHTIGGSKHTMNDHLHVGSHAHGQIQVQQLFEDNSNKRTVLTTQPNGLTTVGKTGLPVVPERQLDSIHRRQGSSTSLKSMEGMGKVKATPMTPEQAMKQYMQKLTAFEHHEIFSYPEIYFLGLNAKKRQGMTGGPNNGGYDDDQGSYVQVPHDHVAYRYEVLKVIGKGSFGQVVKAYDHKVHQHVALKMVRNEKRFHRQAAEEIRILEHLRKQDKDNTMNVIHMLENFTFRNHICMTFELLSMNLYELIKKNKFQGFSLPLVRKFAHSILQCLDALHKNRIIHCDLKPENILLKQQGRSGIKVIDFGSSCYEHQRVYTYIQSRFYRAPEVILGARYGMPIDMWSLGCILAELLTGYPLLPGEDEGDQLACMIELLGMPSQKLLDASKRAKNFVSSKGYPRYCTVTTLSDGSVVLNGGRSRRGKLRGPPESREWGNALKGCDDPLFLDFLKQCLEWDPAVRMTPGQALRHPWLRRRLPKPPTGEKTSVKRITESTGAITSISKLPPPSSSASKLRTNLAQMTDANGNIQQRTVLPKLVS

[7] = target: DYRK3 (human) (UniProt O43781); details: ATP 5 µM
[8] = target: EEF2K (human) (UniProt O00418); details: ATP 5 µM
Chain of EEF2K (human) (O00418 whole entry, looked up): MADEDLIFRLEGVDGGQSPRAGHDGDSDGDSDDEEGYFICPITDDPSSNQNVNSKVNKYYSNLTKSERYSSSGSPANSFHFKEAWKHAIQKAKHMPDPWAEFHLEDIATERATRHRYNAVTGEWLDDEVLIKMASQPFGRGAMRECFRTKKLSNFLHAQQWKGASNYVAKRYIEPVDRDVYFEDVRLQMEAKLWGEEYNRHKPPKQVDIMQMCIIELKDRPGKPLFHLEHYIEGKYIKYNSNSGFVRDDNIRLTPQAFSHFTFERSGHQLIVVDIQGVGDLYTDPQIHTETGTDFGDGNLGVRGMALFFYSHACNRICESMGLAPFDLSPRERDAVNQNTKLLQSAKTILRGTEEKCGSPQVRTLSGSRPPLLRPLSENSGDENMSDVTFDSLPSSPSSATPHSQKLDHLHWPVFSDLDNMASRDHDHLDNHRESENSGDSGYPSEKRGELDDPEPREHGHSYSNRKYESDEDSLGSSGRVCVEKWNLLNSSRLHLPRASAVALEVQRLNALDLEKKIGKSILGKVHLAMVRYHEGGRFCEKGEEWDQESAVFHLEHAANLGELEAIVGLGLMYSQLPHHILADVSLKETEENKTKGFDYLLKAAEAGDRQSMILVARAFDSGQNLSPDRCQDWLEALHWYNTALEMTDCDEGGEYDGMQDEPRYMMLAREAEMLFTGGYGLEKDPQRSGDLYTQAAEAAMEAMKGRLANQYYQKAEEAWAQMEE

[9] = target: HIPK3 (human) (UniProt Q9H422); details: ATP 20 µM
[10] = test system: LCK (mouse); details: ATP 50 µM, accession and sequence are those of the human protein
[11] = target: MAP2K1 (human) (UniProt Q02750); details: compound 0.01 µM; ATP 5 µM
[12] = target: MAPK10 (human) (UniProt P53779); details: ATP 50 µM
Chain of MAPK10 (human) (P53779 whole entry, looked up): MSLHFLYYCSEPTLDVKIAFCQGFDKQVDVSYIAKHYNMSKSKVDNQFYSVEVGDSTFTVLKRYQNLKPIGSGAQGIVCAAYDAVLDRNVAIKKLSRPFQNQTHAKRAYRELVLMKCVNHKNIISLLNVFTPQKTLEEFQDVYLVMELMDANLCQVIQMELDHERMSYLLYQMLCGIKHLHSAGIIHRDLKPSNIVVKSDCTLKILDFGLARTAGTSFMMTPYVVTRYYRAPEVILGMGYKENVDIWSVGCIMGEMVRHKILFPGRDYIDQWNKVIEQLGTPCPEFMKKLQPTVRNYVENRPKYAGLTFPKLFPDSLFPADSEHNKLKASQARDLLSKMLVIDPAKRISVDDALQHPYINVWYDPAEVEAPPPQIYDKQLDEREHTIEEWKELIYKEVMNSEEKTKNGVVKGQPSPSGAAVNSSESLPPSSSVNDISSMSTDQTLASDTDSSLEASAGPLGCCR

[13] = target: MAPK13 (human) (UniProt O15264); details: ATP 5 µM
Chain of MAPK13 (human) (O15264 whole entry, looked up): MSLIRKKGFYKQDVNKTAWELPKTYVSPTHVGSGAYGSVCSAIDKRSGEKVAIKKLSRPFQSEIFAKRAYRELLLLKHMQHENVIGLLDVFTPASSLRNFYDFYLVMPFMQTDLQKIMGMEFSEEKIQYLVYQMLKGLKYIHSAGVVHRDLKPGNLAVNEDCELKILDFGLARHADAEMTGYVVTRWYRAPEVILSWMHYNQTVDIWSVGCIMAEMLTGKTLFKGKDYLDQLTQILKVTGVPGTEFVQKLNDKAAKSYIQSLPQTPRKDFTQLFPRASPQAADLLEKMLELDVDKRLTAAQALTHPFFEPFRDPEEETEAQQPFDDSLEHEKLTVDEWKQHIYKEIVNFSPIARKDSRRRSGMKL

[14] = target: MAPK8 (human) (UniProt P45983); details: ATP 20 µM
Chain of MAPK8 (human) (P45983 whole entry, looked up): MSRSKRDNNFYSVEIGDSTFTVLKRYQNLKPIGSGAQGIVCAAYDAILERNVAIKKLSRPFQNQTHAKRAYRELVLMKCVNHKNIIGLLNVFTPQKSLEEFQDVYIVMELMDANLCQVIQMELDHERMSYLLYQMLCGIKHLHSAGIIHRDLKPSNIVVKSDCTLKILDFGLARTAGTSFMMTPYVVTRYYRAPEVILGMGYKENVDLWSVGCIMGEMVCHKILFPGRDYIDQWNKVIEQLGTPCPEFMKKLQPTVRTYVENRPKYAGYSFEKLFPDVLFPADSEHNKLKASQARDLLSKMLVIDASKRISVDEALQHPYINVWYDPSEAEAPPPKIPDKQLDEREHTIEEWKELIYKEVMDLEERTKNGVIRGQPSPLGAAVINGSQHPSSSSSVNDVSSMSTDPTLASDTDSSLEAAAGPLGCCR

[15] = target: MAPKAPK3 (human) (UniProt Q16644); details: ATP 20 µM
[16] = target: MARK3 (human) (UniProt P27448); details: ATP 5 µM
[17] = target: MKNK2 (human) (UniProt Q9HBH9); details: ATP 50 µM
[18] = target: MYLK (human) (UniProt Q15746); details: ATP 50 µM
[19] = target: NEK2 (human) (UniProt P51955); details: ATP 50 µM
[20] = target: NEK6 (human) (UniProt Q9HC98); details: ATP 50 µM
[21] = target: PAK4 (human) (UniProt O96013); details: ATP 5 µM
[22] = target: PDPK1 (human) (UniProt O15530)
[23] = target: PHKG1 or PHKG2 (human) (UniProt P15735+Q16816); details: ATP 50 µM
Chain of PHKG1 or PHKG2 (human) (P15735 whole entry, looked up): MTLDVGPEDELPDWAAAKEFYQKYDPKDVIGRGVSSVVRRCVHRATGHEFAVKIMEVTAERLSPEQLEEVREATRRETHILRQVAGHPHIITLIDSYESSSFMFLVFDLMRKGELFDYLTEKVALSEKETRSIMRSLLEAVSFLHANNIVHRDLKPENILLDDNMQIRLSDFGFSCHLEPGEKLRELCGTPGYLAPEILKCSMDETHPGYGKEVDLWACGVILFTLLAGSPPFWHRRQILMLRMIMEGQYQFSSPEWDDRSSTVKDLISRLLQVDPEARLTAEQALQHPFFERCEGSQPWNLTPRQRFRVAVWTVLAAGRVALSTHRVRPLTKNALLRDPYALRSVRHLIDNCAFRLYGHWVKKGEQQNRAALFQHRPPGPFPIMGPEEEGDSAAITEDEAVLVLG
Chain of PHKG1 or PHKG2 (human) (Q16816 whole entry, looked up): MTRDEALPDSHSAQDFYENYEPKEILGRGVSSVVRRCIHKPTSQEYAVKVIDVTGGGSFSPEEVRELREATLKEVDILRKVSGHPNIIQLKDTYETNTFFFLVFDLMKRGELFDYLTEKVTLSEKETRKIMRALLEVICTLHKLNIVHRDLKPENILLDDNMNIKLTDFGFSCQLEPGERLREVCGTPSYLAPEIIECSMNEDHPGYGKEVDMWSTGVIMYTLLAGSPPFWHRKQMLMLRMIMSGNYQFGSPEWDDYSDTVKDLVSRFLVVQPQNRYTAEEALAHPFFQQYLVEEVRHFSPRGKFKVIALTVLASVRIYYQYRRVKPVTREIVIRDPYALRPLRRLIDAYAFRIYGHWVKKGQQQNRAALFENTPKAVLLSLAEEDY

[24] = target: PKN2 (human) (UniProt Q16513); details: ATP 5 µM
Chain of PKN2 (human) (Q16513 whole entry, looked up): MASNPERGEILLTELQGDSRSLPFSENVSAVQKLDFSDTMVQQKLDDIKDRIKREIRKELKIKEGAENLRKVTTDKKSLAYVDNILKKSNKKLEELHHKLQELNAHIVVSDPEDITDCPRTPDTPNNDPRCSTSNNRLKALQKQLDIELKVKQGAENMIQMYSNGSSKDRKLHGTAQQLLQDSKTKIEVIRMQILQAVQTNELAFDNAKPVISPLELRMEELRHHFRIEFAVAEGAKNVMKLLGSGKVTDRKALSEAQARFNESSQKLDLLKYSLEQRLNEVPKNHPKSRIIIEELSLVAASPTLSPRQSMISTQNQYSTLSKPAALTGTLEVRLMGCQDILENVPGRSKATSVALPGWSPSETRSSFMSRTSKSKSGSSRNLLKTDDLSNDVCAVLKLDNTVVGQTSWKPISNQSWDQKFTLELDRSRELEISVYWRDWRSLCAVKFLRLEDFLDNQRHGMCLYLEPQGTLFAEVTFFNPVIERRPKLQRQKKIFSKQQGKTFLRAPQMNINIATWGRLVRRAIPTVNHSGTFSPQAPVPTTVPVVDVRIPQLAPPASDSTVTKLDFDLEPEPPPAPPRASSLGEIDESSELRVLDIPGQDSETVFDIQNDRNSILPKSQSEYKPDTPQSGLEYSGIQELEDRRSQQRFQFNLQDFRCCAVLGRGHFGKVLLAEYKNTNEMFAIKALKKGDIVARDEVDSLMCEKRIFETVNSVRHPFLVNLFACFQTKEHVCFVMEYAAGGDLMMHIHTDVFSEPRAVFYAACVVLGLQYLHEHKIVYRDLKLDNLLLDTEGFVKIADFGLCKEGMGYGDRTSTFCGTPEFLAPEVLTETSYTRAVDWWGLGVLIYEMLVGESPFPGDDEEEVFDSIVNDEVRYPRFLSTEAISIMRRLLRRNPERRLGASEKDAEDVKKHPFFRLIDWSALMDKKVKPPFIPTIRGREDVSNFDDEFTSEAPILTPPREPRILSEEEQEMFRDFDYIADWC

[25] = target: PRKACA or PRKACB or PRKACG (human) (UniProt P22694+P22612+P17612); details: ATP 20 µM
[26] = test system: SRC (chicken); details: ATP 50 µM, accession and sequence are those of the human protein
[27] = target: STK3 (human) (UniProt Q13188); details: ATP 20 µM
[28] = target: MAPK1 (human) (UniProt P28482); details: ATP 50 µM

Chain of CAMKK2 (human) (Q96RR4 whole entry, looked up): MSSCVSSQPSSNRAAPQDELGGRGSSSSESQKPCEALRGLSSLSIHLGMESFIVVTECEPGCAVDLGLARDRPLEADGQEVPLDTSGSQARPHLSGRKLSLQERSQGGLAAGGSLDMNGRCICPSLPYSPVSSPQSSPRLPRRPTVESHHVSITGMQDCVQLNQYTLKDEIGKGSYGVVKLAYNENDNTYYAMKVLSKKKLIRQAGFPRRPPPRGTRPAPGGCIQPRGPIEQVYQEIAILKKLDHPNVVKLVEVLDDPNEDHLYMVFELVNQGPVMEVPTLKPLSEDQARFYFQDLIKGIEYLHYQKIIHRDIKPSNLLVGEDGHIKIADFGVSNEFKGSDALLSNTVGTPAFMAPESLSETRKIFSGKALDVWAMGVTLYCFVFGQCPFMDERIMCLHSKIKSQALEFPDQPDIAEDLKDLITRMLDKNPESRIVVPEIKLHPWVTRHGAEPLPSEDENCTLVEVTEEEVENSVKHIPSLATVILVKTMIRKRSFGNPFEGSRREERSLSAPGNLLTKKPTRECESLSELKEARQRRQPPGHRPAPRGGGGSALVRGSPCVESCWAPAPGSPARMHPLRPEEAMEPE

CN[C@@H]1C[C@@H]2O[C@@](C)([C@@H]1OC)n1c3ccccc3c3c4c(c5c6ccccc6n2c5c31)C(=O)N[C@@H]4O
residual activity ([1]; compound 0.01 µM): 71%
residual activity ([2]; compound 0.01 µM): 58%
residual activity ([3]; compound 0.01 µM): 21%
residual activity ([4]; compound 0.01 µM): 12%
residual activity ([5]; compound 0.01 µM): 92%
residual activity ([6]; compound 0.01 µM): 92%
residual activity ([7]; compound 0.01 µM): 84%
residual activity ([8]; compound 0.01 µM): 105%
residual activity ([9]; compound 0.01 µM): 116%
residual activity ([10]; compound 0.01 µM): 50%
residual activity [11]: 75%
residual activity ([12]; compound 0.01 µM): 107%
residual activity ([13]; compound 0.01 µM): 94%
residual activity ([14]; compound 0.01 µM): 79%
residual activity ([15]; compound 0.01 µM): 107%
residual activity ([16]; compound 0.01 µM): 6%
residual activity ([17]; compound 0.01 µM): 103%
residual activity ([18]; compound 0.01 µM): 83%
residual activity ([19]; compound 0.01 µM): 85%
residual activity ([20]; compound 0.01 µM): 104%
residual activity ([21]; compound 0.01 µM): 33%
residual activity ([22]; compound 0.01 µM, ATP 20 µM): 2%
residual activity ([22]; compound 0.01 µM, ATP 50 µM): 83%
residual activity ([23]; compound 0.01 µM): 5%
residual activity ([24]; compound 0.01 µM): 10%
residual activity ([25]; compound 0.01 µM): 63%
residual activity ([26]; compound 0.01 µM): 76%
residual activity ([27]; compound 0.01 µM): 2%

O=S(=O)(NCCNC/C=C/c1ccc(Br)cc1)c1cccc2cnccc12
residual activity ([1]; compound 1.0 µM): 73%
residual activity ([2]; compound 1.0 µM): 102%
residual activity ([3]; compound 1.0 µM): 102%
residual activity ([4]; compound 1.0 µM): 71%
residual activity ([6]; compound 1.0 µM): 105%
residual activity ([7]; compound 1.0 µM): 65%
residual activity ([8]; compound 1.0 µM): 102%
residual activity ([9]; compound 1.0 µM): 106%
residual activity ([28]; compound 1.0 µM): 88%
residual activity ([12]; compound 1.0 µM): 93%
residual activity ([13]; compound 1.0 µM): 98%
residual activity ([14]; compound 1.0 µM): 88%
residual activity ([15]; compound 1.0 µM): 105%
residual activity ([17]; compound 1.0 µM): 97%
residual activity ([18]; compound 1.0 µM): 91%
residual activity ([19]; compound 1.0 µM): 102%
residual activity ([20]; compound 1.0 µM): 104%
residual activity ([22]; compound 1.0 µM, ATP 20 µM): 91%
residual activity ([22]; compound 1.0 µM, ATP 50 µM): 56%
residual activity ([23]; compound 1.0 µM): 76%
residual activity ([24]; compound 1.0 µM): 7%
residual activity ([25]; compound 1.0 µM): 15%
residual activity ([26]; compound 1.0 µM): 100%
residual activity ([27]; compound 1.0 µM): 81%

N#CC(=C(\N)Sc1ccccc1N)/C(C#N)=C(/N)Sc1ccccc1N
residual activity ([3]; compound 10.0 µM): 92%
residual activity ([4]; compound 10.0 µM): 83%
residual activity ([5]; compound 10.0 µM): 99%
residual activity ([6]; compound 10.0 µM): 84%
residual activity ([7]; compound 10.0 µM): 77%
residual activity ([8]; compound 10.0 µM): 116%
residual activity ([9]; compound 10.0 µM): 87%
residual activity ([10]; compound 10.0 µM): 84%
residual activity ([28]; compound 10.0 µM): 68%
residual activity ([12]; compound 10.0 µM): 98%
residual activity ([13]; compound 10.0 µM): 93%
residual activity ([14]; compound 10.0 µM): 90%
residual activity ([16]; compound 10.0 µM): 95%
residual activity ([17]; compound 10.0 µM): 85%
residual activity ([18]; compound 10.0 µM): 95%
residual activity ([19]; compound 10.0 µM): 89%
residual activity ([20]; compound 10.0 µM): 90%
residual activity ([21]; compound 10.0 µM): 94%
residual activity ([22]; compound 10.0 µM, ATP 20 µM): 77%
residual activity ([22]; compound 10.0 µM, ATP 50 µM): 77%
residual activity ([23]; compound 10.0 µM): 94%
residual activity ([24]; compound 10.0 µM): 85%
residual activity ([25]; compound 10.0 µM): 93%
residual activity ([26]; compound 10.0 µM): 84%
residual activity ([27]; compound 10.0 µM): 96%
